From ChEMBL document CHEMBL6127088, “Novel 2-aminothiazole analogues both as polymyxin E synergist and antimicrobial agent against multidrug-resistant Gram-positive bacteria” (2024)
Values after ≈ are worked out from the molar mass of the structure shown.

Experiments:
Assay type in all cases: functional
[1] = tested on: Staphylococcus aureus; assay: Antimicrobial activity against methicillin/ofloxacin-resistant Staphylococcus aureus ATCC 43300 assessed as minimum inhibitory concentration incubated for 18 hrs by broth microdilution method
[2] = tested on: Acinetobacter baumannii; assay: Synergistic antimicrobial activity against Acinetobacter baumannii ATCC 19606 assessed as fractional inhibitory concentration index in presence of polymyxin E incubated for 18 to 20 hrs by chequerboard assay; settings: time 18-20 hrs
[3] = tested on: Acinetobacter baumannii; assay: Antimicrobial activity against Acinetobacter baumannii ATCC 19606 incubated for 18 hrs by broth microdilution method
[4] = tested on: Bacillus subtilis; assay: Antimicrobial activity against Bacillus subtilis ATCC 20678 incubated for 18 hrs by broth microdilution method
[5] = tested on: Enterococcus faecalis; assay: Antimicrobial activity against vancomycin-resistant Enterococcus faecalis ATCC 51299 assessed as minimum inhibitory concentration incubated for 18 hrs by broth microdilution method

| SMILES | MIC [1] [µg/mL] | fractional inhibitory concentration index (FICI) [2] | MIC [3] [µg/mL] | MIC [4] [µg/mL] | MIC [5] [µg/mL] |
| --- | --- | --- | --- | --- | --- |
| Fc1ccc(-c2csc(Nc3ccc(Cl)c(C(F)(F)F)c3)n2)c(F)c1 | 1 (≈ 2.56 µM) | 0.094 | > 256 | 1 (≈ 2.56 µM) | 2 (≈ 5.12 µM) |
| Fc1cc(Nc2nc(C3CCOCC3)cs2)cc(C(F)(F)F)c1 | 64 (≈ 185 µM) | 1.031 | > 256 | 64 (≈ 185 µM) | 128 (≈ 370 µM) |
| C/C(=N\NC(=N)N)c1csc(Nc2cc(F)cc(C(F)(F)F)c2)n1 | 8 (≈ 22.2 µM) | 0.75 | > 256 | 4 (≈ 11.1 µM) | 8 (≈ 22.2 µM) |
| Fc1cc(Nc2nc(-c3cccnc3)cs2)cc(C(F)(F)F)c1 | 64 (≈ 189 µM) | 1.031 | 128 (≈ 377 µM) | 256 (≈ 754 µM) | 256 (≈ 754 µM) |
| C/C(=N\Nc1ncccc1Cl)c1csc(Nc2cc(F)cc(C(F)(F)F)c2)n1 | 2 (≈ 4.65 µM) | 0.094 | 128 (≈ 298 µM) | 1 (≈ 2.33 µM) | 4 (≈ 9.31 µM) |
| Fc1cc(Nc2nc(-c3ccco3)cs2)cc(C(F)(F)F)c1 | 8 (≈ 24.4 µM) | 0.187 | > 256 | 4 (≈ 12.2 µM) | 8 (≈ 24.4 µM) |
| COc1cc(Nc2nc(-c3ccc(F)cc3F)cs2)ccc1C(F)(F)F | 2 (≈ 5.18 µM) | 0.187 | > 256 | 2 (≈ 5.18 µM) | 2 (≈ 5.18 µM) |
| Fc1ccc(-c2csc(Nc3ccc(C(F)(F)F)cc3F)n2)c(F)c1 | 256 (≈ 684 µM) | 1.031 | > 256 | 256 (≈ 684 µM) | 256 (≈ 684 µM) |
| CCOc1ccc(Nc2nc(-c3ccc(F)cc3F)cs2)cc1C(F)(F)F | 8 (≈ 20 µM) | 0.094 | > 256 | 4 (≈ 9.99 µM) | 4 (≈ 9.99 µM) |
| COc1ccc(Nc2nc(-c3ccc(F)cc3F)cs2)cc1C(F)(F)F | 8 (≈ 20.7 µM) | 0.094 | > 256 | 4 (≈ 10.4 µM) | 8 (≈ 20.7 µM) |
| Fc1ccc(-c2csc(Nc3ccc(C(F)(F)F)cc3Cl)n2)c(F)c1 | 256 (≈ 655 µM) | 1.031 | > 256 | 256 (≈ 655 µM) | 256 (≈ 655 µM) |
| C/C(=N\Nc1cc(O)ncn1)c1csc(Nc2cc(F)cc(C(F)(F)F)c2)n1 | 128 (≈ 310 µM) | 0.562 | > 256 | 256 (≈ 621 µM) | 256 (≈ 621 µM) |
| Fc1cc(Nc2nc(-c3cc4ccccc4o3)cs2)cc(C(F)(F)F)c1 | 1 (≈ 2.64 µM) | 0.187 | > 256 | 2 (≈ 5.29 µM) | 2 (≈ 5.29 µM) |
| Fc1ccc(-c2csc(Nc3cccc(C(F)(F)F)c3)n2)c(F)c1 | 4 (≈ 11.2 µM) | 0.094 | > 256 | 2 (≈ 5.61 µM) | 2 (≈ 5.61 µM) |
| Fc1cc(Nc2nc(C3CC3)cs2)cc(C(F)(F)F)c1 | 32 (≈ 106 µM) | 0.187 | > 256 | 16 (≈ 52.9 µM) | 8 (≈ 26.5 µM) |
| Oc1cc(Nc2nc(-c3ccc(F)cc3F)cs2)cc(C(F)(F)F)c1 | 1 (≈ 2.69 µM) | 0.25 | > 256 | 0.5 (≈ 1.34 µM) | 256 (≈ 688 µM) |
| O=C(Nc1ccccn1)c1csc(Nc2cc(F)cc(C(F)(F)F)c2)n1 | 256 (≈ 670 µM) | 0.281 | 64 (≈ 167 µM) | 256 (≈ 670 µM) | 256 (≈ 670 µM) |
| Fc1ccc(-c2csc(Nc3ccncc3)n2)c(F)c1 | 4 (≈ 13.8 µM) | 1.031 | 128 (≈ 442 µM) | 4 (≈ 13.8 µM) | 32 (≈ 111 µM) |
| C/C(=N\Nc1ccc(Cl)nn1)c1csc(Nc2cc(F)cc(C(F)(F)F)c2)n1 | 64 (≈ 149 µM) | 0.75 | > 256 | 256 (≈ 594 µM) | 256 (≈ 594 µM) |
| Oc1ccc(Nc2nc(-c3ccc(F)cc3F)cs2)cc1C(F)(F)F | 4 (≈ 10.7 µM) | 0.187 | > 256 | 2 (≈ 5.37 µM) | 2 (≈ 5.37 µM) |

| SMILES | MIC [1] [µg/mL] | fractional inhibitory concentration index (FICI) [2] | MIC [3] [µg/mL] | MIC [4] [µg/mL] | MIC [5] [µg/mL] |
| --- | --- | --- | --- | --- | --- |
| Cc1ccc(C(F)(F)F)cc1Nc1nc(-c2ccc(F)cc2F)cs1 | 256 (≈ 691 µM) | 0.093 | > 256 | 2 (≈ 5.4 µM) | 256 (≈ 691 µM) |
| CS(=O)(=O)c1ccc(Nc2nc(-c3ccc(F)cc3F)cs2)cc1 | 256 (≈ 699 µM) | 1.031 | > 256 | 256 (≈ 699 µM) | 256 (≈ 699 µM) |
| COc1cc(Nc2nc(-c3ccc(F)cc3F)cs2)cc(C(F)(F)F)c1 | 256 (≈ 663 µM) | 0.187 | > 128 | 2 (≈ 5.18 µM) | 256 (≈ 663 µM) |
| Fc1ccc(-c2csc(Nc3cccnc3)n2)c(F)c1 | 128 (≈ 442 µM) | 1.031 | 128 (≈ 442 µM) | 256 (≈ 885 µM) | 256 (≈ 885 µM) |
| Fc1ccc(-c2csc(Nc3cc(C(F)(F)F)cc(C(F)(F)F)c3)n2)c(F)c1 | 4 (≈ 9.43 µM) | 0.094 | > 256 | 4 (≈ 9.43 µM) | 4 (≈ 9.43 µM) |
| Fc1ccc(-c2csc(Nc3c(Cl)cc(C(F)(F)F)cc3Cl)n2)c(F)c1 | 256 (≈ 602 µM) | 1.031 | > 256 | 256 (≈ 602 µM) | 256 (≈ 602 µM) |
| Fc1ccc(-c2csc(Nc3ccccn3)n2)c(F)c1 | 256 (≈ 885 µM) | 1.031 | 64 (≈ 221 µM) | 256 (≈ 885 µM) | 256 (≈ 885 µM) |
| C/C(=N\Nc1ccc(C(=O)O)cn1)c1csc(Nc2cc(F)cc(C(F)(F)F)c2)n1 | 64 (≈ 146 µM) | 1.031 | > 256 | 64 (≈ 146 µM) | 128 (≈ 291 µM) |
| Fc1ccc(-c2csc(Nc3cc(Cl)cc(C(F)(F)F)c3)n2)c(F)c1 | 4 (≈ 10.2 µM) | 0.156 | > 256 | 4 (≈ 10.2 µM) | 2 (≈ 5.12 µM) |
| Cn1cc(-c2csc(Nc3cc(F)cc(C(F)(F)F)c3)n2)cn1 | 256 (≈ 748 µM) | 0.281 | > 256 | 256 (≈ 748 µM) | 256 (≈ 748 µM) |
| C/C(=N\Nc1ccccc1)c1csc(Nc2cc(F)cc(C(F)(F)F)c2)n1 | 16 (≈ 40.6 µM) | 0.375 | 64 (≈ 162 µM) | 16 (≈ 40.6 µM) | 16 (≈ 40.6 µM) |
| C/C(=N\NC1=NCCN1)c1csc(Nc2cc(F)cc(C(F)(F)F)c2)n1 | 16 (≈ 41.4 µM) | 0.75 | > 256 | 8 (≈ 20.7 µM) | 16 (≈ 41.4 µM) |
| Fc1cc(Nc2nc(-c3cccs3)cs2)cc(C(F)(F)F)c1 | 64 (≈ 186 µM) | 0.187 | > 256 | 4 (≈ 11.6 µM) | 8 (≈ 23.2 µM) |
| Fc1cc(Nc2nc(-c3ccncc3)cs2)cc(C(F)(F)F)c1 | 64 (≈ 189 µM) | 1.031 | 128 (≈ 377 µM) | 256 (≈ 754 µM) | 256 (≈ 754 µM) |
| Fc1cc(Nc2nc(-c3ccc(F)cc3F)cs2)cc(C(F)(F)F)c1 | 2 (≈ 5.34 µM) | 0.062 | > 256 | 2 (≈ 5.34 µM) | 2 (≈ 5.34 µM) |
| CC(C)(C)c1csc(Nc2cc(F)cc(C(F)(F)F)c2)n1 | 8 (≈ 25.1 µM) | 0.156 | > 256 | 4 (≈ 12.6 µM) | 8 (≈ 25.1 µM) |
| Fc1ccc(-c2csc(Nc3ccccc3C(F)(F)F)n2)c(F)c1 | 8 (≈ 22.5 µM) | 0.156 | > 256 | 8 (≈ 22.5 µM) | 4 (≈ 11.2 µM) |
| Cc1cc(C(F)(F)F)ccc1Nc1nc(-c2ccc(F)cc2F)cs1 | 256 (≈ 691 µM) | 0.094 | > 256 | 4 (≈ 10.8 µM) | 256 (≈ 691 µM) |
| Fc1cc(Nc2nc(-c3ccccn3)cs2)cc(C(F)(F)F)c1 | 1 (≈ 2.95 µM) | 0.078 | 64 (≈ 189 µM) | 0.5 (≈ 1.47 µM) | 64 (≈ 189 µM) |
| C/C(=N\Nc1cnccn1)c1csc(Nc2cc(F)cc(C(F)(F)F)c2)n1 | 64 (≈ 161 µM) | 0.75 | 128 (≈ 323 µM) | 256 (≈ 646 µM) | 128 (≈ 323 µM) |
